Consider one compound from US6935334B2, “Enhancing therapeutic effectiveness of nitric oxide inhalation” (The General Hospital Corporation, priority 2000, dated 2005).

The test system of this assay is isolated-perfused mouse lungs preconstricted with U46619. Kind of assay: Pulmonary vasodilator response to NO inhalation in isolated, perfused and ventilated mouse lungs preconstricted with U46619. The assay is classed as in vivo. To be noted: for pulmonary vasodilator response to subsequent ventilation with NO after prolonged NO breathing: prolonged breathing of 20 ppm NO. As for the experimental part:
Isolated, Perfused, and Ventilated Mouse Lung Model Mice were killed by intraperitoneal injection of pentobarbital sodium (200 mg/kg body weight) and placed in a 37° C. water-jacketed chamber (Isolated Perfused Lung Size 1 Type 839; Hugo-Sachs Elektronik, March-Hugstetten, Germany). The trachea was isolated and intubated, and the lungs were ventilated with 21% O2, 6% CO2 and 73% N2 using a volume-controlled ventilator (model 687; Harvard Apparatus, South Natick, Mass.) at a ventilatory rate of 85 breaths/min and 2 cm H2O end-expiratory pressure. The tidal volume was adjusted to provide a peak inspiratory pressure of 10 cm H2O throughout each study. The lungs were exposed via a midline sternotomy, and a ligataure was placaed around the aorticopulmonary outflow tract. After injection of 10 IU heparin into the right ventricle, the pulmonary artery was cannulated with a stainless steel cannula (1 mm ID) via the right ventricle. The pulmonary venous effluent was drained via a stainless steel cannula (1 mm ID) placed through the apex of the left ventricle across the mitral valve and into the left atrium. Left atrial pressure was maintained at 2 mmHg. Lungs were perfused at a constant flow (50 ml. kg body weight^−1. min^−1; Ismatec Reglo-Analogue roller pump; Laboratoriumstechnik GmbH, Wertheim-Mondfeld, Germany) with a non-recirculating system at 37° C. The perfusate used was Hanks' Balanced Salt Solution (GibcoBRL, Grand Island, N.Y.) containing 1.26 mM CaCl2, 5.33 mM KCl, 0.44 mM KH2PO4, 0.50 mM MgCl2, 0.41 mM MgSO4, 138.0 mM NaCl, 4.0 mM NaHCO3, 0.3 mM Na2HPO4, and 5.6 mM glucose. Bovine serum albumin, 5%, and dextran, 5% (both from Sigma Chemical Co., St. Louis, Mo.), were added to the perfusate to prevent pulmonary edema, in the isolated, perfused, and ventilated rat lung, essentially as described in Holzmann et al., 1996, Am. J. Physiol. 271:L981-L986. Indomethacin, […] (Sigma Chemical Co.), and 1 mM L-NAME (Sigma Chemical Co.) were added to the perfusate to inhibit endogenous prostaglandin and NO synthesis, respectively. Sodium bicarbonate was added to adjust the perfusate pH to 7.34-7.43.
Pulmonary artery pressure (PAP) and left atrial pressure were measured via saline-filled membrane pressure transducers (Argon, Athens, Tex.) connected to a side port of the inflow and outflow cannulae, respectively. Airway pressure (Paw) was measured using a differential pressure transducer (model MP-45-32-871; Validyne Engineering Corp., Northridge, Calif.) connected to the inspiratory limb just before the Y piece. Pressure transducers were connected to a biomedical amplifier (Hewlett Packard 7754B, Andover, Mass.), and data were recorded at 150 Hz on a personal computer using an analog-to-digital interface with a data acquisition system (DI-220; Dataq Instruments, Akron, Ohio). The system was calibrated before each experiment.
For NO inhalation, NO gas (800 or 80 ppm NO in nitrogen, Airco, Murray Hill, N.J.) was blended (Oxygen Blender; Bird Corporation, Palm Springs, Calif.) with oxygen, carbon dioxide, and nitrogen to achieve a final concentration of 21% O2, 6% CO2, and the desired NO concentration. NO and higher oxidative states of NO (NOx; CLD 700 AL; Eco Physics, Dürmten, Switzerland), oxygen (Hudson Ventronics Ddivision, Temecula, Calif.), and carbon dioxide (Datex CO2 monitor; Puritan-Bennett Corpration, Los Angeles, Calif.) concentrations were monitored continuously.
Pulmonary Vascular Response to NO inhalation after Lipopolysaccharide Challenge Wild-type mice and NOS2-deficient mice were injected intraperitoneally with 50 mg/kg body weight Escherichia coli 0111:B4 lipopolysaccharide (LPS; Difco Laboratories, Detroit, Mich.) dissolved in saline 16 h before isolated lung perfusion. This time point was chosen based on previous studies in rats (Holzmann et al., 1996, Am. J. Physiol. 271:L981-L986). Untreated wild-type and NOS2-deficient mice served as controls. […]

As for `[N]=O` [NO, Nitric oxide], the “effect of NO inhalation on PAP” value (0.4, 4 and 40 ppm NO for 5 min each, all groups) is listed as “decreased the PAP in a dose-dependent manner”. The “ΔPAP (change in PAP by inhaled NO as percentage of U46619-induced increase)” value reads like this: (0.4 ppm NO, lipopolysaccharide-pretreated NOS2-deficient mice exposed to 20 ppm ambient NO for 16 h) −24±4%; (0.4 ppm NO, untreated control NOS2-deficient mice exposed to 20 ppm ambient NO for 16 h) −42±4%; (4 ppm NO, lipopolysaccharide-pretreated NOS2-deficient mice exposed to 20 ppm ambient NO for 16 h) −39±5%; (4 ppm NO, untreated control NOS2-deficient mice exposed to 20 ppm ambient NO for 16 h) −58±4%; (40 ppm NO, lipopolysaccharide-pretreated NOS2-deficient mice exposed to 20 ppm ambient NO for 16 h) −55±3%; (40 ppm NO, untreated control NOS2-deficient mice exposed to 20 ppm ambient NO for 16 h) −62±5%. The “subsequent responsiveness to short-term inhaled NO after prolonged NO breathing” value (breathing 0.2 ppm NO for 16 h after lipopolysaccharide, NOS2-deficient mice) was “did not cause subsequent hyporesponsiveness”. Besides, the “subsequent vasodilator response to 0.4 ppm NO inhalation after prolonged NO breathing” value (breathing 2 ppm NO for 16 h after lipopolysaccharide, NOS2-deficient mice, compared with control mice) is reported as “decreased the vasodilator response”. In addition, the “pulmonary vasodilator response to subsequent ventilation with NO after prolonged NO breathing” value is “markedly impaired the pulmonary vasodilator response” (endotoxin-challenged NOS2-deficient mice) and “does not impair the pulmonary vasodilator response” (untreated wild-type or NOS2-deficient mice).
